In patent US8653263B2 (Janssen Pharmaceutica, priority 2009, dated 2014):

molecular target: human orexin-2 receptor (Homo sapiens (Human), UniProt O43614); assay: Human orexin 2 receptor radioligand binding ([3H]-EMPA competition); conditions: HEK293 cells stably expressing human orexin-2 receptor; [3H]-EMPA 5 nM final; apparent Ki=IC50/(1+C/Kd), Kd=2 nM; read-out: OR 2 Ki
Sequence (O43614 whole entry): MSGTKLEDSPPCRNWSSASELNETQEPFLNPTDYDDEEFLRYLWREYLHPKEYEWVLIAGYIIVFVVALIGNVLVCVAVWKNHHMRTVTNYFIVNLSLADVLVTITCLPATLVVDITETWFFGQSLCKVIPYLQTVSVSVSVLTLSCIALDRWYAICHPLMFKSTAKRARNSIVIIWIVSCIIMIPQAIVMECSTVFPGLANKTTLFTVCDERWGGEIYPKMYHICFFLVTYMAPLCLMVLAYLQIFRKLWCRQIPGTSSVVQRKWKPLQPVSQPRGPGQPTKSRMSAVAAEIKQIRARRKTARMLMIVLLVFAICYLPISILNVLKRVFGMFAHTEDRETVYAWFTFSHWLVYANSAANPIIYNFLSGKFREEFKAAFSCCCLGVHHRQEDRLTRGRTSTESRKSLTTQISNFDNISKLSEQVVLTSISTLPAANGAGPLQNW

Q: How did the Ki turn out when `CCOc1ccc2ccccc2c1C(=O)N1CC2CN(c3nccc(-c4ccccc4)n3)CC2C1` (stereo not drawn) [Example 126, 2-[(2-Ethoxynaphthalen-1-yl)carbonyl]-5-(4-phenylpyrimidin-2-yl)octahydro pyrrolo[3,4-c]pyrrole] was run?
A: 95 nM

Q: How did the Ki turn out when `COc1ccc2nc(N3CC4CN(C(=O)c5ccccc5-c5ccccc5)CC4C3)sc2c1` (stereo not drawn) [Example 187, Biphenyl-2-yl-[5-(6-methoxy-benzothiazol-2-yl)-hexahydro-pyrrolo[3,4-c]pyrrol-2-yl]-methanone] was run?
A: 2280 nM

Q: How did the Ki turn out when `COc1ccc(C(=O)N2CC3CN(c4nc5ccc(Cl)cc5s4)CC3C2)c(OC)c1` (stereo not drawn) [Example 163, 6-Chloro-2-{5-[(2,4-dimethoxyphenyl)carbonyl]hexahydropyrrolo[3,4-c]pyrrol-2(1H)-yl}-1,3-benzothiazole] was run?
A: 380 nM

Q: For `Cc1cc(C)nc(N2CC3CN(C(=O)c4cc(F)ccc4C(F)(F)F)CC3C2)n1` (stereo not drawn) [Example 221, 2-(4,6-Dimethylpyrimidin-2-yl)-5-{[5-fluoro-2-(trifluoromethyl)phenyl]carbonyl}octahydropyrrolo[3,4-c]pyrrole], which Ki is on record?
A: 2210 nM

Q: How did the Ki turn out when `Cc1cc(N2CC3CN(C(=O)c4cc(F)ccc4-c4ncccn4)CC3C2)nc(C(F)(F)F)n1` (stereo not drawn) [Example 204, (5-Fluoro-2-pyrimidin-2-yl-phenyl)-[5-(6-methyl-2-trifluoromethyl-pyrimidin-4-yl)-hexahydro-pyrrolo[3,4-c]pyrrol-2-yl]-methanone] was run?
A: 50 nM

Q: For `COc1cc(Cl)ccc1C(=O)N1CC2CN(c3nc(C)cc(C)n3)CC2C1` (stereo not drawn) [Example 222, 2-[(4-Chloro-2-methoxyphenyl)carbonyl]-5-(4,6-dimethylpyrimidin-2-yl)octahydropyrrolo[3,4-c]pyrrole], which Ki is on record?
A: 3620 nM

Q: For `Cc1cc(C)nc(N2CC3CN(C(=O)c4cccc(F)c4-c4ncccc4C)CC3C2)n1` (stereo not drawn) [Example 371, (5-(4,6-Dimethylpyrimidin-2-yl)hexahydropyrrolo[3,4-c]pyrrol-2(1H)-yl)(3-fluoro-2-(3-methylpyridin-2-yl)phenyl)methanone], which Ki is on record?
A: 3400 nM

Q: For `Cc1cc(C)nc(N2CC3CN(C(=O)c4cc(F)ccc4-c4ncccc4F)CC3C2)n1` (stereo not drawn) [Example 402, (5-(4,6-Dimethylpyrimidin-2-yl)hexahydropyrrolo[3,4-c]pyrrol-2(1H)-yl)(5-fluoro-2-(3-fluoropyridin-2-yl)phenyl)methanone], which Ki is on record?
A: 120 nM

Q: `Cc1cnc(C)c(N2CC3CN(C(=O)c4ccccc4-n4nccn4)CC3C2)n1` (stereo not drawn) [Example 155, 2-(3,6-Dimethylpyrazin-2-yl)-5-{[2-(2H-1,2,3-triazol-2-yl)phenyl]carbonyl}octahydropyrrolo[3,4-c]pyrrole] was tested. Which Ki did it give?
A: 33 nM

Q: For `COc1ccnc(N2CC3CN(C(=O)c4ccc(F)c5ccccc45)CC3C2)n1` (stereo not drawn) [Example 57, 2-[(4-Fluoronaphthalen-1-yl)carbonyl]-5-(4-methoxypyrimidin-2-yl)octahydro-pyrrolo[3,4-c]pyrrole], which Ki is on record?
A: 167 nM

Q: Which Ki does the source give for `COc1c(C(=O)N2CC3CN(c4nc(C)cc(C)n4)CC3C2)ccc2ccccc12` (stereo not drawn) [Example 340, [5-(4,6-Dimethyl-pyrimidin-2-yl)-hexahydro-pyrrolo[3,4-c]pyrrol-2-yl]-(1-methoxy-naphthalen-2-yl)-methanone] here?
A: 1520 nM

Q: How did the Ki turn out when `COc1ccnc(N2CC3CN(C(=O)c4ccccc4-c4ccc(C)cc4)CC3C2)n1` (stereo not drawn) [Example 54, 2-(4-Methoxypyrimidin-2-yl)-5-[(4′-methylbiphenyl-2-yl)carbonyl]octahydro-pyrrolo[3,4-c]pyrrole] was run?
A: 769 nM

Q: Which Ki does the source give for `COc1cc(OC)nc(N2CC3CN(C(=O)c4ccc(F)cc4-n4nccn4)CC3C2)n1` (stereo not drawn) [Example 160, 2-(4,6-Dimethoxypyrimidin-2-yl)-5-{[4-fluoro-2-(2H-1,2,3-triazol-2-yl)phenyl]carbonyl}octahydropyrrolo[3,4-c]pyrrole] here?
A: 58 nM

Q: For `Cc1cc(C)nc(N2CC3CN(C(=O)c4cccnc4-c4ncccn4)CC3C2)n1` (stereo not drawn) [Example 235, (5-(4,6-Dimethylpyrimidin-2-yl)hexahydropyrrolo[3,4-c]pyrrol-2(1H)-yl)(2-(pyrimidin-2-yl)pyridin-3-yl)methanone], which Ki is on record?
A: 560 nM

Q: For `COc1cccc(OC)c1C(=O)N1CC2CN(c3nccc(-c4ccccc4)n3)CC2C1` (stereo not drawn) [Example 166, 2-[(2,6-Dimethoxyphenyl)carbonyl]-5-(4-phenylpyrimidin-2-yl)octahydropyrrolo[3,4-c]pyrrole], which Ki is on record?
A: 465 nM

Q: For `Cc1ccc(-c2ccccc2C(=O)N2CC3CN(c4cnc5ccccc5n4)CC3C2)cc1` (stereo not drawn) [Example 193, (4′-Methyl-biphenyl-2-yl)-(5-quinoxalin-2-yl-hexahydro-pyrrolo[3,4-c]pyrrol-2-yl)-methanone], which Ki is on record?
A: 1160 nM

Q: `Cc1cc(C)nc(N2CC3CN(C(=O)c4cccc(F)c4-c4ccn[nH]4)CC3C2)n1` (stereo not drawn) [Example 284, 2-(4,6-Dimethylpyrimidin-2-yl)-5-{[3-fluoro-2-(1H-pyrazol-5-yl)phenyl]carbonyl}octahydropyrrolo[3,4-c]pyrrole] was tested. Which Ki did it give?
A: 8 nM

Q: Which Ki does the source give for `Cc1ccnc(N2CC3CN(C(=O)c4ccccc4-c4nnc[nH]4)CC3C2)n1` (stereo not drawn) [Example 87, 2-(4-Methylpyrimidin-2-yl)-5-{[2-(4H-1,2,4-triazol-3-yl)phenyl]carbonyl}octahydro-pyrrolo[3,4-c]pyrrole] here?
A: 509 nM

Q: With `COc1ccc(C(=O)N2CC3CN(c4nc5ccc(C)cc5s4)CC3C2)c(OC)c1` (stereo not drawn) [Example 172, 2-{5-[(2,4-Dimethoxyphenyl)carbonyl]hexahydropyrrolo[3,4-c]pyrrol-2(1H)-yl}-6-methyl-1,3-benzothiazole] as the molecule, how does the Ki read?
A: 450 nM

Q: With `Cc1cc(C)nc(N2CC3CN(C(=O)c4c(C)cccc4Cl)CC3C2)n1` (stereo not drawn) [Example 230, 2-[(2-Chloro-6-methylphenyl)carbonyl]-5-(4,6-dimethylpyrimidin-2-yl)octahydropyrrolo[3,4-c]pyrrole] as the molecule, how does the Ki read?
A: 254 nM

Q: Which Ki does the source give for `Cc1ccc(C(=O)N2CC3CN(c4nc(C)cc(C)n4)CC3C2)c(C)c1` (stereo not drawn) [Example 227, 2-[(2,4-Dimethylphenyl)carbonyl]-5-(4,6-dimethylpyrimidin-2-yl)octahydropyrrolo[3,4-c]pyrrole] here?
A: 1470 nM

Q: Which Ki does the source give for `Cc1nc(N2CC3CN(C(=O)c4ncccc4-n4nccn4)CC3C2)nc(C)c1F` (stereo not drawn) [Example 325, 2-(5-Fluoro-4,6-dimethylpyrimidin-2-yl)-5-{[3-(2H-1,2,3-triazol-2-yl)pyridin-2-yl]carbonyl}octahydropyrrolo[3,4-c]pyrrole] here?
A: 16 nM

Q: Which Ki does the source give for `Cc1cc(C)nc(N2CC3CN(C(=O)c4ccccc4-c4cccc(F)c4)CC3C2)n1` (stereo not drawn) [Example 52, 2-(4,6-Dimethylpyrimidin-2-yl)-5-[(3′-fluorobiphenyl-2-yl)carbonyl]octahydro-pyrrolo[3,4-c]pyrrole] here?
A: 65 nM

Q: Which Ki does the source give for `CCOc1ccccc1C(=O)N1CC2CN(c3nc(C)cc(C)n3)CC2C1` (stereo not drawn) [Example 88, 2-(4,6-Dimethylpyrimidin-2-yl)-5-[(2-ethoxyphenyl)carbonyl]octahydropyrrolo[3,4-c]pyrrole] here?
A: 75 nM

Q: For `Cc1cc(C)nc(N2CC3CN(C(=O)c4c(F)cccc4F)CC3C2)n1` (stereo not drawn) [Example 278, (2,6-Difluorophenyl)(5-(4,6-dimethylpyrimidin-2-yl)hexahydropyrrolo[3,4-c]pyrrol-2(1H)-yl)methanone], which Ki is on record?
A: 2270 nM

Q: `CCOc1ccc(OCC)c(C(=O)N2CC3CN(c4nc(C)cc(C)n4)CC3C2)c1` (stereo not drawn) [Example 228, 2-[(2,5-Diethoxyphenyl)carbonyl]-5-(4,6-dimethylpyrimidin-2-yl)octahydropyrrolo[3,4-c]pyrrole] was tested. Which Ki did it give?
A: 184 nM

Q: How did the Ki turn out when `O=C(c1cccc(F)c1Br)N1CC2CN(c3ncc4cc(F)ccc4n3)CC2C1` (stereo not drawn) [Example 247, (2-Bromo-3-fluorophenyl)(5-(6-fluoroquinazolin-2-yl)hexahydropyrrolo[3,4-c]pyrrol-2(1H)-yl)methanone] was run?
A: 650 nM

Q: Which Ki does the source give for `O=C(c1ccccc1-n1nccn1)N1CC2CN(c3nccc(C(F)(F)F)n3)CC2C1` (stereo not drawn) [Example 153, 2-{[2-(2H-1,2,3-Triazol-2-yl)phenyl]carbonyl}-5-[4-(trifluoromethyl)pyrimidin-2-yl]octahydropyrrolo[3,4-c]pyrrole] here?
A: 75 nM

Q: How did the Ki turn out when `O=C(c1ccccc1-n1nccn1)N1CC2CN(c3cnc4ccccc4n3)CC2C1` (stereo not drawn) [Example 149, 2-[5-{[2-(2H-1,2,3-Triazol-2-yl)phenyl]carbonyl}hexahydropyrrolo[3,4-c]pyrrol-2(1H)-yl]quinoxaline] was run?
A: 173 nM

Q: With `COc1cc(N2CC3CN(C(=O)c4cc(F)ccc4-n4nccn4)CC3C2)nc(N(C)C)n1` (stereo not drawn) [Example 4, 4-[5-{[5-Fluoro-2-(2H-1,2,3-triazol-2-yl)phenyl]carbonyl}hexahydropyrrolo[3,4-c]pyrrol-2(1H)-yl]-6-methoxy-N,N-dimethylpyrimidin-2-amine] as the molecule, how does the Ki read?
A: 65 nM

Q: How did the Ki turn out when `O=C(c1cc(F)ccc1-c1ncccn1)N1CC2CN(c3nccc(-c4ccccc4)n3)CC2C1` (stereo not drawn) [Example 113, 2-[(5-Fluoro-2-pyrimidin-2-ylphenyl)carbonyl]-5-(4-phenylpyrimidin-2-yl)octahydropyrrolo[3,4-c]pyrrole] was run?
A: 50 nM

Q: For `Cc1cc(C)nc(N2CC3CN(C(=O)c4ccccc4-c4cccs4)CC3C2)n1` (stereo not drawn) [Example 43, 2-(4,6-Dimethylpyrimidin-2-yl)-5-[(2-thiophen-2-ylphenyl)carbonyl]octahydro-pyrrolo[3,4-c]pyrrole], which Ki is on record?
A: 7 nM

Q: `Cc1ccc(-c2cc(F)ccc2C(=O)N2CC3CN(c4nc(C)cc(C)n4)CC3C2)nc1` (stereo not drawn) [Example 248, (5-(4,6-dimethylpyrimidin-2-yl)hexahydropyrrolo[3,4-c]pyrrol-2(1H)-yl)(4-fluoro-2-(5-methylpyridin-2-yl)phenyl)methanone] was tested. Which Ki did it give?
A: 170 nM

Q: For `Cc1nc(N2CC3CN(C(=O)c4ncccc4-n4nccn4)CC3C2)nc(C)c1C` (stereo not drawn) [Example 323, 2-{[3-(2H-1,2,3-Triazol-2-yl)pyridin-2-yl]carbonyl}-5-(4,5,6-trimethylpyrimidin-2-yl)octahydropyrrolo[3,4-c]pyrrole], which Ki is on record?
A: 25 nM

Q: With `COc1ccccc1C(=O)N1CC2CN(c3nc(C)cc(C)n3)CC2C1` (stereo not drawn) [Example 201, [5-(4,6-Dimethyl-pyrimidin-2-yl)-hexahydro-pyrrolo[3,4-c]pyrrol-2-yl]-(2-methoxy-phenyl)-methanone] as the molecule, how does the Ki read?
A: 1370 nM

Q: Which Ki does the source give for `COc1ccc(C(=O)N2CC3CN(c4nccc(-c5ccccc5)n4)CC3C2)c(OC)c1` (stereo not drawn) [Example 167, 2-[(2,4-Dimethoxyphenyl)carbonyl]-5-(4-phenylpyrimidin-2-yl)octahydropyrrolo[3,4-c]pyrrole] here?
A: 411 nM
